In patent US8703961B2, “Thiazole derivatives for the treatment of diseases such as cancer” (Merck Patent GmbH, priority 2009, dated 2014) one finds IC50, remaining activity and melting point data, which are given here for five compounds.

pIC50: −log10 of the molar value. A value given as a limit tells only on which side of the number the result lay.

The term pIC50 denotes the negative decadic logarithm of the IC50, by convention in mol/L. The low end stands for a high IC50, the high end for a low IC50. For orientation: melting point means the temperature of the solid-liquid transition.

Data set [1] addresses T1, NUAK1 (Homo sapiens, UniProt O60285).
T1 construct: purchased
T1 sequence (O60285 1-661): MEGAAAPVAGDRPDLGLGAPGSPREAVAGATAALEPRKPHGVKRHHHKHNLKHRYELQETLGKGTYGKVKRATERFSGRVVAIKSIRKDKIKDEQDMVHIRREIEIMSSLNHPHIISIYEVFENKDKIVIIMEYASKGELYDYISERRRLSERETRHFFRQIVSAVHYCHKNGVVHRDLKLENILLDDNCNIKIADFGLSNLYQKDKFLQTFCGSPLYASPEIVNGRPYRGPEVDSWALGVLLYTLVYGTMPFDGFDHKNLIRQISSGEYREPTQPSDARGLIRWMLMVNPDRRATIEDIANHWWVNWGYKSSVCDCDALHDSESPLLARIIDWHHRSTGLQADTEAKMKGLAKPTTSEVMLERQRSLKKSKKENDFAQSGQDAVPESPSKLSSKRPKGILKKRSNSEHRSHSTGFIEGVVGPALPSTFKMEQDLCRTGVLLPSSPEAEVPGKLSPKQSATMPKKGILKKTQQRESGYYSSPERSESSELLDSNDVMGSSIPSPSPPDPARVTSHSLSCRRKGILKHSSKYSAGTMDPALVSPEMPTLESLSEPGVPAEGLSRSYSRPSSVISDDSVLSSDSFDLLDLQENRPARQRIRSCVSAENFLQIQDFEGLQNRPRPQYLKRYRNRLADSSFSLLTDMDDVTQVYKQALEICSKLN
As to the kind of experiment: filter binding assay of NUAK1 inhibition. The format is biochemical. To be noted: for pIC50: derived from % inhibition at 1 μM; for remaining activity at 1 µM: read-out: residual kinase activity NUAK1. On the procedure:
(§1) All kinase assays were carried out using the Multidrop 384 from Thermo-Fisher at room temperature in a total assay volume of 25.5 μl. 15 μl of an enzyme mix comprising enzyme and substrate in buffer are added to the test batch comprising either 0.5 μl of test substance, DMSO control or empty container. Test substances are pre-incubated in the presence of the enzyme and substrate for 5 minutes before the reaction is initiated by addition of 10 μl of ATP (concentration kinase-dependent of […]). The reaction is terminated by addition of 5 μl of orthophosphoric acid (50 mM). The test containers are then transferred onto P81 Unifilter plates by means of a “Packard Harvester” and dried in air. The dry Unifilter plates are sealed after the addition of MicroScint O, and the radioactivity is determined in a Packard Topcount NXT.
NUAK1 (5-20 mU diluted in 50 mM Tris pH 7.5, 0.1 mM EGTA, 0.1% β-mercaptoethanol, 1 mg/ml of BSA) is tested against ALNRTSSDSALHRRR as substrate. The final volume of 25.5 μl contains 50 mM Tris pH 7.5, 0.1 mM EGTA, 0.3 mM ALNRTSSDSALHRRR, 10 mM magnesium acetate and 0.02 mM [^33P-γ-ATP] (50-1000 cpm/pmole) and is incubated at room temperature for 30 min. Tests are terminated by the addition of 5 μl of a 0.5 M (3%) orthophosphoric acid soln. and then transferred onto P81 Unifilter plates and washed with 50 mM orthophosphoric acid buffer.

Data set [2] concerns the target T2, MAPK8 (Homo sapiens, UniProt P45983). Description: filter binding kinase assay. Type of data set: biochemical. The arrangement: purchased. To be noted: derived from % inhibition at 1 μM; first MAPK8 line. On the procedure: as §1
Target sequence in this assay (P45983 whole entry, species assumed): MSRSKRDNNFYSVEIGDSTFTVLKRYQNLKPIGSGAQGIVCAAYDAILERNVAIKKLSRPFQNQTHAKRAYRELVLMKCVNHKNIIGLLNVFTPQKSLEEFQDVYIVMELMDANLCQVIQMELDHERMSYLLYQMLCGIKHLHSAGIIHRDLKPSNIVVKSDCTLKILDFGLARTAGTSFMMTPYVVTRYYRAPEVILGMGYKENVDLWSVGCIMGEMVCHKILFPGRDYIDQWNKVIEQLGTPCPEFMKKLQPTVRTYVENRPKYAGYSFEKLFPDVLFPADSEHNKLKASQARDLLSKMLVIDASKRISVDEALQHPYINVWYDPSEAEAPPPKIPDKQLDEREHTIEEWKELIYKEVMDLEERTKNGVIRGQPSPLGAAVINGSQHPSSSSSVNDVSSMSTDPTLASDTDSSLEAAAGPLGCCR
The target of data set [3] is T3, PDPK1 (Homo sapiens, UniProt O15530).
T3 construct: purchased
T3 sequence (O15530 1-556): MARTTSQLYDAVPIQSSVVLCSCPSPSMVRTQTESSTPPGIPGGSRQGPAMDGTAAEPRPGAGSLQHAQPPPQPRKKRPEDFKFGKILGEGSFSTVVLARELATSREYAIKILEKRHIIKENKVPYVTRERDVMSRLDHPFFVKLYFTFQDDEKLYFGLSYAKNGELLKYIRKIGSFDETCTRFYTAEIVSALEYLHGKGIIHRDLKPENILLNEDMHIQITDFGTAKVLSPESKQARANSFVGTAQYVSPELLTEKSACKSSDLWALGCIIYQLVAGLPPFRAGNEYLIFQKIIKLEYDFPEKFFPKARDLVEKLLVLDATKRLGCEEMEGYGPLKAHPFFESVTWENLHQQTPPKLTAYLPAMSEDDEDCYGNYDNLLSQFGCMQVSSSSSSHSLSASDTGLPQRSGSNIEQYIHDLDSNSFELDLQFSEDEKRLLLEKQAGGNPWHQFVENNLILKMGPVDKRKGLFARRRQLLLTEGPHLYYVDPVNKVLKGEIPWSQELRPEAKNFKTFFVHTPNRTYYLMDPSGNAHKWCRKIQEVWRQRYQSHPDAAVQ
Description: filter binding kinase assay (second PDPK1 line). The format is biochemical. To be noted: derived from % inhibition at 1 μM. On the procedure: as §1

Data set [4] deals with T2, MAPK8. Description: filter binding kinase assay (second MAPK8 line). Type of data set: biochemical. The following applies: read-out: residual kinase activity MAPK8. How it is done: as §1
Target sequence in this assay (P45983 whole entry): as the sequence (P45983 whole entry, species assumed) above

In turn, `c1ccc(Cc2c[nH]c3ncsc23)cc1` [Compound A7, 6-benzyl-4H-pyrrolo[2,3-d]thiazole] returned a melting point of 133 to 135 °C. Also, in data set [1], the negative-log IC50 (pIC50) is 6.00 to 8.00 and the remaining activity at 1 µM is 27%. Moreover, in data set [2], the negative logarithm of the IC50 (pIC50) is 5.00 to 6.00. This compound gave a negative logarithm of the IC50 (pIC50) in data set [3] of less than 6.00.

For the compound `Nc1ncsc1C#Cc1cnc2[nH]ccc2c1` [Compound A22, 5-(1H-pyrrolo[2,3-b]pyridin-5-ylethynyl)thiazol-4-ylamine], the negative logarithm of the IC50 (pIC50) in data set [1] is 6.00 to 8.00; in data set [3] it was 5.00 to 6.00. Further, the remaining activity at 1 µM was 16% in data set [1] and 34% in data set [4].

As to `CC(C)(C)OC(=O)Nc1nc(-c2ccncc2)sc1C#CCN1CCOCC1` [Compound A25, tert-butyl[5-(3-morpholin-4-ylprop-1-ynyl)-2-pyridin-4-ylthiazol-4-yl]-carbamate], the pIC50 was 4.00 to 5.00 in data set [1], less than 6.00 in data set [2] and less than 6.00 in data set [3].

Take `CC(C)(C)OC(=O)Nc1ncsc1C#CCN1C(=O)c2ccccc2C1=O` [Compound A26, tert-butyl{5-[3-(1,3-dioxo-1,3-dihydroisoindol-2-yl)prop-1-ynyl]-thiazol-4-yl}carbamate]: the pIC50 in data set [1] was 6.00 to 8.00; in data set [2], 4.00 to 5.00; in data set [3], 4.00 to 5.00. In addition, the remaining activity at 1 µM in data set [1] worked out at 24%.

Consider `Nc1ncsc1C#Cc1cccc(O)c1` [Compound A27, 3-(4-aminothiazol-5-ylethynyl)phenol], for which the results for the negative-log IC50 (pIC50) in data set [1], in data set [2] and in data set [3] were 6.00 to 8.00, 5.00 to 6.00 and less than 6.00, respectively. In data set [1], the remaining activity at 1 µM is 49%.
